Marks after values point to notes of the source that are not given here.
Tests used:
[1] = system: several bird species; settings: 1% w/w concentration; including European starlings and northern bobwhites; cited from earlier work
[2] = system: brushtail possums; settings: Day et al, 2000; cited from earlier work
[3] = system: wild possums; experiment: Palatability of treated baits at possum-specific bait stations; assay type: in vivo, Trichosurus vulpecula
From the text: (§1) To determine the palatability of baits to wild possums and wild rats, possum-specific bait stations and rat-specific bait stations were established in bush-pasture margin and forest habitats (see FIG. 1 and FIG. 2).
The possum-specific bait station (FIG. 1) is mounted on an elevated wire stake 4 with bait 2 attached in a perforated bag 1 at top of wire 4. A plastic disc 3 is used to stop rodents (not shown) climbing wire 4 has plasticine (not shown) on it to record animal activity.
(§2) The bait stations (FIGS. 1 and 2) enable determination of the response of possums or rats to bait 2. Plasticine 5 is used to record the presence (e.g. footprints, claw marks, bite marks) and species of animal present at the bait station.
(§3) In this example the repellence of neem (a known repellent), lime (a known repellent), anthraquinone and d-pulegone (compounds of the present invention) in cereal, carrot and paste baits are tested on wild possums and rats.
(§4) The following bait treatments are compared: • standard (solution of dye+water+0.1% cinnamon oil) • cinnamamide (solution of dye+water+0.5% cinnamamide) • neem (solution of dye+water+2% neem oil) • lime (solution of dye+water+2% agricultural lime) • anthraquinone (solution of dye+water+0.75% anthraquinone formulation). • d-pulegone (solution of dye+water+1% d-pulegone) • salt (solution of dye+water+salt (10% of total bait weight))
(§5) Treatments are applied to the cereal and carrot bait surface at a rate of 10% of total bait weight. The treatments are applied to the paste bait by mixing the solution through the bait, again at a rate of 10% of total bait weight.
(§6) The treatments are placed on the bait stations as described above and possum and rat activity measured.
(§7) The following bait treatments were compared (only carrot baits are compared): • standard (solution of dye+water+0.1% cinnamon oil) • anthraquinone 1 (solution of dye+water+1% anthraquinone formulation) • anthraquinone 2 (solution of dye+water+2% anthraquinone formulation) • d-pulegone 1 (solution of dye+water+1% d-pulegone) • d-pulegone 2 (solution of dye+water+2% d-pulegone) • combination 1 (solution of dye+water+1% anthraquinone formulation+1% d-pulegone) • combination 2 (solution of dye+water+2% anthraquinone formulation+2% d-pulegone) • salt (solution of dye+water+salt (10% of total bait weight))
(§8) All quantities given in percent by weight and all bait treatment, bait station set-up and subsequent measurement are as described in Example 1.

[4] = system: wild sparrows; experiment: Sparrow feed table dose response and combination test on treated wheat (Example 7); assay type: in vivo; settings: FIGS. 6-8; result in words
From the text: Wild sparrow tests were used to determine the effect of the individual repellency compared with the combination repellency.
On sparrow feed tables, sparrows were offered a choice between control wheat and three doses of repellent treated wheat.

[5] = system: rats; settings: Day et al, 2000; cited from earlier work
[6] = system: wild rats; experiment: Palatability of treated baits at rat-specific bait stations; assay type: in vivo, Rattus spp.
Protocol: as §1
The rat-specific bait station (FIG. 2) is an approximately 60 mm diameter tube 6 with bait 2 placed in the centre and tube 6 is pinned to ground with holding stake 4. Plasticine 5 is added at either end of the tube 6 to record animal activity.
as §2, §3, §4, §5, §6, §7, §8

[7] = system: house sparrows; experiment: Sparrow treated wheat choice test, 4-day periods (Example 8, Experiment 1); assay type: in vivo, Passer domesticus; settings: mean daily percentage of wheat eaten over 4-day test periods; choice with plain wheat
Protocol: The feeding behavior of free-ranging house sparrows (Passer domesticus) presented wheat treated with anthraquinone paired with either a novel visual cue (blue dye), cinnamon oil (containing primarily olfactory cues), or d-pulegone (containing olfactory and taste cues), was recorded, to determine the suitability of repellent combinations for preventing non-target birds from consuming pesticides or other harmful substances.
Eight independent populations of house sparrows, were trained to eat plain hulled wheat from four identical food trays on feed tables.
In Experiment 1, sparrows were presented, for 4-day periods, with a choice between plain wheat, anthraquinone treated wheat, and two of the remaining repellent combinations (anthraquinone and cinnamon oil, anthraquinone and blue dye, anthraquinone and d-pulegone (at 0.5% wt or 2.0% wt concentrations)) until all sparrow populations had been exposed to each repellent.
The consumption of plain wheat and anthraquinone treated wheat was compared to the consumption of the repellent combinations every 24 hr.

[8] = Example 1, by bait treatment (cereal, carrot, paste baits), first exposure
[9] = Example 1, by bait treatment, first exposure
[10] = Example 1, by bait treatment, subsequent exposures
[11] = Example 2, carrot baits, first exposure
[12] = Example 2, carrot baits, subsequent exposures

Row | Molecule | Acceptance of treated baits by possums [2] | Proportion of bait stations left untouched [3, 8] | Proportion of bait stations with bait eaten when encountered [3, 9] | Proportion of bait stations left untouched [3, 10] | Proportion of bait stations with bait eaten when encountered [3, 10] | Amount of wheat eaten by sparrows relative to control wheat or single repellents [4] | Acceptance of treated baits by rats / wild rodents [5] | Proportion of bait stations eaten when encountered [6, 9] | Proportion of bait stations left untouched [6, 9] | Proportion of bait stations eaten when encountered [6, 10] | Proportion of bait stations left untouched [6, 10] | other results
1 | CC(C)=C1CC[C@@H](C)CC1=O [d-pulegone, d-Pulegone] | readily take carrot baits | 0.52 | 0.87 | 0.30 | 0.98 | reduced the quantity of wheat eaten by sparrows on days 1, 3 and 4 | readily take carrot baits | 0.70 | 0.63 | 0.75 | 0.55 | Repellence of birds [1]: repel several bird species
2 | Salt |  | 0.37 | 0.30 | 0.29 | 0.38 |  |  | 0.00 | 0.86 | 0.16 | 0.72 | Proportion of bait stations eaten when encountered [3, 11]: 1.00; Proportion of bait stations left untouched [3, 11]: 0.82; Proportion of bait stations eaten when encountered [3, 12]: 0.43*; Proportion of bait stations left untouched [3, 12]: 0.30*; Proportion of bait stations eaten when encountered [6, 11]: 0.22; Proportion of bait stations left untouched [6, 11]: 0.18; Proportion of bait stations eaten when encountered [6, 12]: 0.33*; Proportion of bait stations left untouched [6, 12]: 0.50
3 | O=C1c2ccccc2C(=O)c2ccccc21 [Anthraquinone] | readily eaten by possums | 0.67 | 0.80 | 0.35 | 1.00 | reduced the amount of wheat eaten by sparrows on days 3 and 4 | readily take anthraquinone treated baits from bait stations | 1.00 | 0.64 | 0.65 | 0.57 | Wheat consumption, percentage of that offered [7]: 54%
4 | NC(=O)C=Cc1ccccc1 [Cinnamamide, cinnamamide] |  | 0.55 | 0.71 | 0.29 | 0.95 |  |  | 0.67 | 0.77 | 0.70 | 0.66 | 

Reference: patent US20050186237A1, “Bird repellent” (priority 2002, published 2005)
